Read-outs that look alike come from different tables or passages of the source.
Legend:
Type in all cases: cell-based
rat TRPA1 (rTRPA1) = rat TRPA1 (rTRPA1) (Rattus norvegicus, UniProt Q6RI86); assay: Whole-cell patch clamp of rat TRPA1 expressed in HEK-293T cells
Experimental: (§1) Transformed human embryonic kidney-293 (HEK-293T) cells were grown in Dulbecco's modified Eagle's medium (DMEM)+F-12 supplemented with 10% fetal calf serum, and 1% penicillin/streptomycin in 5% CO2 at 37°C. Cells grown to 90% confluence in 35 mm Petri dishes were transiently transfected with plasmid DNA encoding a TRP channel construct (1 µg). Rat TRPV1 (rTRPV1) was cloned into an enhanced green fluorescent protein-containing vector (pTracer-CMV2; Invitrogen, Carlsbad, CA). Chicken TRPV1 (cTRPV1), the chicken rat TRPV1 chimera (crcTRPV1), rat TRPV2 (rTRPV2), mouse TRPV3 (mTRPV3), mouse TRPV4 (mTRPV4), rat TRPM8 (rTRPM8), and rat TRPA1 (rTRPA1), were cloned into pcDNA3 and co-transfected with enhanced green fluorescent protein (0.1 µg) to follow expression. The cTRPV1 and crcTRPV1 clones were kindly provided by Dr. David Julius. Recordings were carried out 24–36 hours after transfection. Cells were split via trypsin EDTA, plated on glass coverslips at 5–10% confluence, and used 2–3 hours later.
(§2) Electrophysiological experiments were performed using the whole-cell patch-clamp technique at room temperature. Modified Ringer's solution with low chloride and nominal calcium contained (in mM): 130 sodium hydroxide, 5 potassium chloride, 1 magnesium chloride, 10 sodium 4-(2-hydroxyethyl)-1-piperazineethanesulfonic acid, 10 2-(N-morpholino)ethanesulfonic acid, and 20 glucose (pH 7.4; 310 milli-osmolar). […] 2 mM calcium chloride was included in the external solution where noted. To activate TRPV1, the modified Ringer's solution was made at pH 5 (low pH solution) and the chloride concentration was kept to a minimum to prevent contamination of the TRPV1 currents with acid-activated chloride currents. For recordings from heterologously expressing cells, the internal pipette solution contained (in mM): 125 cesium-Methanesulfonate, 10 cesium (1.2-bis(o-aminophenoxy)ethane-N,N,N',N'-tetraacetic acid, 8 sodium chloride, 4 magnesium adenosine triphosphate, and 10 HEPES (pH 7.2; 290 mOSM; nominal free calcium concentrations). For TRPA1 and dorsal root ganglion recordings, the internal pipette solution contained (in mM): 110 cesium-Methanesulfonate, 0.5 cesium4BAPTA, 8 sodium chloride, 0.2 calcium chloride, 4 magnesium-ATP, 4 sodium-GTP, and 10 4-(2-hydroxyethyl)-1-piperazineethanesulfonic acid (pH 7.2; 290 mOSM; 100 nM free calcium internal). MaxChelator was used to calculate the free calcium concentration (http://www.stanford.edu/cpatton/maxc.html).
(§3) Recordings were obtained using an Axopatch 200B amplifier, Digidata 1322A analog-to-digital converter, and pClamp 8.01 software (Molecular Devices, Union City, CA). Data were low-pass filtered at 2 kHz and digitized at 5 kHz. Borosilicate glass pipettes (World Precision Instruments, Sarasota, FL) were typically 3 MΩ pipette resistance after fire polishing. Cell capacitance was measured for each cell, and access resistance compensated to ∼80%. Recordings were begun ∼5 minutes after initial rupture to ensure initial steady state conditions. Current-voltage (I-V) relations were obtained using a ramp protocol. Voltage ramps (400 ms) from −100 to +40 or +100 mV were applied every 1–2 seconds and the holding potential was either −70 mV or 0 mV (see Figure Legends). A 40 ms step was added at the beginning and end of the ramp (i.e. at −100 mV, +40 mV or +100 mV). Liquid junction potentials were not corrected.
(§4) The dose response curves were fit with the Hill equation, where [drawing 8] and [A] is the concentration of agonist or blocker, N is the Hill coefficient, and KD is the [A] for Imeasured/Imax = 0.5. The term apparent dissociation constant is used in place of the half concentration of excitation and inhibition. […] Averaged data are presented as mean±standard error (S.E.) throughout. Statistical analysis included paired and unpaired Student's t-test comparisons of the data; p values are reported in the text.

mouse TRPV4 (mTRPV4) = target: T1, mouse TRPV4 (mTRPV4) (Mus musculus, UniProt Q9EPK8); assay: Whole-cell patch clamp of mouse TRPV4 expressed in HEK-293T cells; parameters: key to Agonist efficacy: Ø - not activated
T1 construct: expressed in transfected cells; host or cells: HEK-293T
T1 sequence (Q9EPK8 whole entry): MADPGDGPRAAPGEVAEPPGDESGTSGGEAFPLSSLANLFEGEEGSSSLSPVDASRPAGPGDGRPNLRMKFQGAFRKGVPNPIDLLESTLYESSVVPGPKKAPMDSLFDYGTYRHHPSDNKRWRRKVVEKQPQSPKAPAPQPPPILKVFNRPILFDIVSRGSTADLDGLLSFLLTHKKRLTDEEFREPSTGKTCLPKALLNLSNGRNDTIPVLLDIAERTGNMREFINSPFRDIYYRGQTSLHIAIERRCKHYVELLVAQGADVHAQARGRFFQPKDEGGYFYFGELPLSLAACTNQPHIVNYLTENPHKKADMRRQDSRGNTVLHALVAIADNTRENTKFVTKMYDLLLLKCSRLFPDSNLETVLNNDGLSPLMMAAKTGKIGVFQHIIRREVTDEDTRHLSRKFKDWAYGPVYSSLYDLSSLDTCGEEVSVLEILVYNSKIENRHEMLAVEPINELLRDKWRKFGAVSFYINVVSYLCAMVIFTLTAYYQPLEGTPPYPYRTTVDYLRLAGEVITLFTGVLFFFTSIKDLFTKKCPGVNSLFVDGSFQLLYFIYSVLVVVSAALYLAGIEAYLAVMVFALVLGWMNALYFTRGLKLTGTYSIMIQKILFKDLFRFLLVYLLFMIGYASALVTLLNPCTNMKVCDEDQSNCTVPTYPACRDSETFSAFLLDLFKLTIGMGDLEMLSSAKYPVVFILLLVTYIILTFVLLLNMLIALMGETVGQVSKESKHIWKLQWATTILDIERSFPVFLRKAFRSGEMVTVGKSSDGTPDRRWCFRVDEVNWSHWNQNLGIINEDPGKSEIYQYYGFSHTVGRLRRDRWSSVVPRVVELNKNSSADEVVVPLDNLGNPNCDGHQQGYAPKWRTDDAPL
Experimental: as §1, §2
as §3, with “corrected. […]” for “corrected.”

mouse TRPV3 (mTRPV3) = target: T2, mouse TRPV3 (mTRPV3) (Mus musculus, UniProt Q8K424); assay: Whole-cell patch clamp of mouse TRPV3 expressed in HEK-293T cells; conditions: for Increase of agonist-evoked current prior to onset of inhibition: citral 1 mM, n = 7
T2 sequence (Q8K424 1-791): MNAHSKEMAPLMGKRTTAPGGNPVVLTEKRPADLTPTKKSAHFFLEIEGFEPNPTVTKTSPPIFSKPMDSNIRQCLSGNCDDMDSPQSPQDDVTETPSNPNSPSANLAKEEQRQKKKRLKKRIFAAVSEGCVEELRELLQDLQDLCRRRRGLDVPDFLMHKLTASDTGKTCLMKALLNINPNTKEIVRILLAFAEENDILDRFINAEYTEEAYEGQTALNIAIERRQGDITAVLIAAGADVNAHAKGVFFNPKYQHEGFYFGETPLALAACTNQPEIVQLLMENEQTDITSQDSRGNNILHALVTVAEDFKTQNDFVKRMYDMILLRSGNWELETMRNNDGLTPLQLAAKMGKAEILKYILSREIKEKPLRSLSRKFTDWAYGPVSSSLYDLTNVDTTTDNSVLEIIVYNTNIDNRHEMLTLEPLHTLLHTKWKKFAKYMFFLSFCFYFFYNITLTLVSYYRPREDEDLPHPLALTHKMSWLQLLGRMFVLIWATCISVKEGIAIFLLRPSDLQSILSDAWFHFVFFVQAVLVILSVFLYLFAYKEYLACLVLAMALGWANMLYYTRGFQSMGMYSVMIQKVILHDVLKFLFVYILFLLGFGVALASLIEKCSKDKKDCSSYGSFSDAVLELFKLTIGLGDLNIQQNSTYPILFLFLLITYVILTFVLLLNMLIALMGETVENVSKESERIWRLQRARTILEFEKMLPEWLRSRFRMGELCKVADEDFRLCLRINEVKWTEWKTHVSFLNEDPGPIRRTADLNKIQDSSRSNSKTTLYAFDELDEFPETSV
Experimental: as §1, §2, §3, §4

[1] = test system: chicken rat TRPV1 chimera (crcTRPV1, CRC V2–V4); assay: Whole-cell patch clamp of chicken rat TRPV1 chimera in HEK-293T cells; conditions: n = 6
Experimental: as §1
Electrophysiological experiments were performed using the whole-cell patch-clamp technique at room temperature. […]
Recordings were obtained using an Axopatch 200B amplifier, Digidata 1322A analog-to-digital converter, and pClamp 8.01 software (Molecular Devices, Union City, CA). […] Cell capacitance was measured for each cell, and access resistance compensated to ∼80%. […]

rat TRPA1 (rTRPA1), sequence (Q6RI86 whole entry): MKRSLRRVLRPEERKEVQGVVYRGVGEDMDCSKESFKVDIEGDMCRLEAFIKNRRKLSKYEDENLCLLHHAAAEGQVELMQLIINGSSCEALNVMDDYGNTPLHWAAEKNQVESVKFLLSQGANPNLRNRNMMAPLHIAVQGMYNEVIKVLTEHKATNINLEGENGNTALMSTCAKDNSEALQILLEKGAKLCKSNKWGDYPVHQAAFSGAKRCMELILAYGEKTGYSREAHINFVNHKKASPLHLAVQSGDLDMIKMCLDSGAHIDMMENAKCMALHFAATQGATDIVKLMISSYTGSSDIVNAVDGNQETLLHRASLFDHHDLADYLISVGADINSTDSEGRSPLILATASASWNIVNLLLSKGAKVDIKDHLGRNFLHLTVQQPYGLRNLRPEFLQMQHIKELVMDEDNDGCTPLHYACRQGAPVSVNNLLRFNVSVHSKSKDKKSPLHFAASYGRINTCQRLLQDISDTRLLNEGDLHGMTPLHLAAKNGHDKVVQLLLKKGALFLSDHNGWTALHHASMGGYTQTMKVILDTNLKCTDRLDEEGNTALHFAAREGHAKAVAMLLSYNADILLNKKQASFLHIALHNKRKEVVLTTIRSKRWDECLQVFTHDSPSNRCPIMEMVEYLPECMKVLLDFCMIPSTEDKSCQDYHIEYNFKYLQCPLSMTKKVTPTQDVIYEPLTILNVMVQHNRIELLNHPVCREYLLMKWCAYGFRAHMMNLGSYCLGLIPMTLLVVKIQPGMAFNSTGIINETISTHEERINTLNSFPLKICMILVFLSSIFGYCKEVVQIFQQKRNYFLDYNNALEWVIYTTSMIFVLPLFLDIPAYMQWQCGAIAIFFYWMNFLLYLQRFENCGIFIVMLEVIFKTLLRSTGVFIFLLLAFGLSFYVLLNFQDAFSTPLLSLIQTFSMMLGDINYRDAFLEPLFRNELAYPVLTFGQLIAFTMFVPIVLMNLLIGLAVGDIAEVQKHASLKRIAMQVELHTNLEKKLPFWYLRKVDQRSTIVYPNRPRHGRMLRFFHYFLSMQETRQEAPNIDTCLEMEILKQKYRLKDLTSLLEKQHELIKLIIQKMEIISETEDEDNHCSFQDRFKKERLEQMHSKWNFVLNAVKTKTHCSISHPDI

With CC(C)=CCCC(C)=CC=O [citral, 3,7-dimethyl-2,6-octadienal] as the molecule, how does the “Reversibility of citral inhibition of agonist-evoked current” value (rat TRPA1 (rTRPA1); allyl isothiocyanate-evoked) read?
The value was “rapidly reversed”.

And the “Effect of citral addition on agonist-induced current” value (rat TRPA1 (rTRPA1); allyl isothiocyanate-induced, n = 10)?
Its value is “not increased”.

What about the “TRPA1 current activation by allyl isothiocyanate recovered after citral washout” value (rat TRPA1 (rTRPA1); at 30s, n = 5) of the same molecule?
Its value is 60±16%.

What about the Activation threshold (rat TRPA1 (rTRPA1); citral activation, bell-shaped dose response, 2 mM external calcium) of the same molecule?
The Activation threshold was “threshold ∼200 µM”.

What about the “Hill coefficient (inhibition)” value (rat TRPA1 (rTRPA1); citral block of allyl isothiocyanate-evoked current) of the same molecule?
Its value is 1.0.

What about the “Agonist efficacy IAITC (300 µM)/Icitral (300 µM)” value (rat TRPA1 (rTRPA1); fold larger, −100 mV, n = 27 and 9) of the same molecule?
Its value is “IAITC (300 µM)/Icitral (300 µM) 1.5 fold larger (n = 27 and 9; −100 mV)”.

And the Kd (rat TRPA1 (rTRPA1); read-out: Inhibition KD, app)?
The Kd was 254 µM.

And the “Increase of ITRPA1 above baseline” value (rat TRPA1 (rTRPA1); −100 mV)?
Its value is 3.1±0.8 fold.

And the Agonist efficacy (mouse TRPV4 (mTRPV4))?
The Agonist efficacy was “Ø”.

What about the “Reversibility of citral inhibition of agonist-evoked current” value (mouse TRPV4 (mTRPV4); 4α-phorbol-12, 13-didecanoate-evoked) of the same molecule?
The value was “rapidly reversed”.

And the “Effect of citral addition on agonist-induced current” value (mouse TRPV4 (mTRPV4); 4α-phorbol-12, 13-didecanoate-induced, n = 9)?
The value was “not increased”.

And the “Hill coefficient (inhibition)” value (mouse TRPV4 (mTRPV4); citral block of 4α-phorbol-12, 13-didecanoate-evoked current)?
The value was 0.9.

And the Kd (mouse TRPV4 (mTRPV4); read-out: Inhibition KD, app)?
The Kd was 32 µM.

And the “Hill coefficient (activation)” value (mouse TRPV3 (mTRPV3))?
Its value is 22.3.

What about the “Reversibility of citral inhibition of agonist-evoked current” value (mouse TRPV3 (mTRPV3)) of the same molecule?
The value was “essentially irreversible”.

And the “Increase of agonist-evoked current prior to onset of inhibition” value (mouse TRPV3 (mTRPV3); +100 mV)?
The value was 1.3±0.1 fold.

What about the “Increase of agonist-evoked current prior to onset of inhibition” value (mouse TRPV3 (mTRPV3); −100 mV) of the same molecule?
Its value is 1.7±0.3 fold.

What about the Kd (mouse TRPV3 (mTRPV3); citral activation, nominal external calcium, read-out: Activation KD, app) of the same molecule?
Its Kd is 926 µM.

And the “Hill coefficient (inhibition)” value (mouse TRPV3 (mTRPV3); citral block of 2-aminoethyldiphenyl borate-evoked current)?
Its value is 4.0.

What about the Kd (mouse TRPV3 (mTRPV3); citral block of current evoked by 700 µM 2-aminoethyldiphenyl borate, read-out: Inhibition KD, app) of the same molecule?
Its Kd is 465 µM.

What about the “Agonist efficacy I2-APB (100 µM)/Icitral (1 mM)” value (mouse TRPV3 (mTRPV3); fold larger, −40 mV, n = 6) of the same molecule?
The value was “I2-APB (100 µM)/Icitral (1 mM) 25±14 fold larger (n = 6; −40 mV)”.

What about the “Time for >50% inhibition of peak TRP current in continued presence of citral” value (mouse TRPV3 (mTRPV3); n = 6) of the same molecule?
Its value is no more than 6 s.

What about the “Increase of inward ITRPV3 above baseline” value (mouse TRPV3 (mTRPV3); −40 mV) of the same molecule?
Its value is 38 fold.

And the “Activation of CRC V2–V4 chimera currents” value [1]?
The value was “restored citral activation”.

Reference: PMC2346451 (PLoS ONE, 2008)
